Experimental data: patent US20210198277A1, “AMINE-SUBSTITUTED ARYL OR HETEROARYL COMPOUNDS” (Epizyme, Inc., priority 2016, published 2021)
Like-named read-outs stand apart in the source and are kept apart here.

What was measured:
human EHMT2 913-1193 = molecular target: T1, human EHMT2 913-1193 (Homo sapiens, UniProt Q96KQ7); assay: EHMT2 enzyme assay on histone peptide substrate (EHMT2 PEP); format: biochemical
T1 construct: recombinant purified human EHMT2 913-1193, Viva; purchased Viva
T1 sequence (Q96KQ7 913-1193): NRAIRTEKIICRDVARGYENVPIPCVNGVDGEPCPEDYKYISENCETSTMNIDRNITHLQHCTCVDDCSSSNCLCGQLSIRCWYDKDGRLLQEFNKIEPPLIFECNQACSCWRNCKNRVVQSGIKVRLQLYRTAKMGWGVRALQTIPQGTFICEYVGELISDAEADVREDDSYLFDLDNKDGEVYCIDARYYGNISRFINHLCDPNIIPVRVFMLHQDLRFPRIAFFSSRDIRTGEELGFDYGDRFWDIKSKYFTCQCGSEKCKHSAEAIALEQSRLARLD
Procedure: Recombinant purified human EHMT2 913-1193 (55 μM) synthesized by Viva was used for all experiments. Biotinylated histone peptides were synthesized by Biopeptide and HPLC-purified to >95% purity. Streptavidin Flashplates and seals were purchased from PerkinElmer and 384 Well V-bottom Polypropylene Plates were from Greiner. ^3H-labeled S-adenosylmethionine (^3H-SAM) was obtained from American Radiolabeled Chemicals with a specific activity of 80 Ci/mmol. Unlabeled SAM and S-adenosylhomocysteine (SAH) were obtained from American Radiolabeled Chemicals and Sigma-Aldrich respectively. Flashplates were washed in a Biotek ELx-405 with 0.1% Tween. 384-well Flashplates and 96-well filter binding plates were read on a TopCount microplate reader (PerkinElmer). Compound serial dilutions were performed on a Freedom EVO (Tecan) and spotted into assay plates using a Thermo Scientific Matrix PlateMate (Thermo Scientific). Reagent cocktails were added by Multidrop Combi (Thermo Scientific).
General Procedure for EHMT2 Enzyme Assay on Histone Peptide Substrate.
10-point curves of test compounds were made on a Freedom EVO (Tecan) using serial 3-fold dilutions in DMSO, beginning at 2.5 mM (final top concentration of compound was 50 μM and the DMSO was 2%). A 1 μL aliquot of the inhibitor dilution series was spotted in a polypropylene 384-well V-bottom plate (Greiner) using a Thermo Scientific Matrix PlateMate (Thermo Scientific). […] Compounds were incubated for 30 minutes with 40 μL per well of 0.031 nM EHMT2 (recombinant purified human EHMT2 913-1193, Viva) in 1× assay buffer (20 mM Bicine [pH 7.5], 0.002% Tween 20, 0.005% Bovine Skin Gelatin and 1 mM TCEP). […] Reactions were incubated for 60 minutes at room temperature and quenched with 10 μL per well of 400 μM unlabeled SAM, then transferred to a 384-well streptavidin Flashplate (PerkinElmer) and washed in a Biotek ELx-405 well washer with 0.1% Tween after 60 minutes. 384-well Flashplates were read on a TopCount microplate reader (PerkinElmer).

EHMT1 = molecular target: T2, EHMT1 (Homo sapiens, UniProt Q9H9B1); assay: EHMT1 enzyme assay on peptide substrate (EHMT1 PEP); format: biochemical
T2 sequence (Q9H9B1 1-1298): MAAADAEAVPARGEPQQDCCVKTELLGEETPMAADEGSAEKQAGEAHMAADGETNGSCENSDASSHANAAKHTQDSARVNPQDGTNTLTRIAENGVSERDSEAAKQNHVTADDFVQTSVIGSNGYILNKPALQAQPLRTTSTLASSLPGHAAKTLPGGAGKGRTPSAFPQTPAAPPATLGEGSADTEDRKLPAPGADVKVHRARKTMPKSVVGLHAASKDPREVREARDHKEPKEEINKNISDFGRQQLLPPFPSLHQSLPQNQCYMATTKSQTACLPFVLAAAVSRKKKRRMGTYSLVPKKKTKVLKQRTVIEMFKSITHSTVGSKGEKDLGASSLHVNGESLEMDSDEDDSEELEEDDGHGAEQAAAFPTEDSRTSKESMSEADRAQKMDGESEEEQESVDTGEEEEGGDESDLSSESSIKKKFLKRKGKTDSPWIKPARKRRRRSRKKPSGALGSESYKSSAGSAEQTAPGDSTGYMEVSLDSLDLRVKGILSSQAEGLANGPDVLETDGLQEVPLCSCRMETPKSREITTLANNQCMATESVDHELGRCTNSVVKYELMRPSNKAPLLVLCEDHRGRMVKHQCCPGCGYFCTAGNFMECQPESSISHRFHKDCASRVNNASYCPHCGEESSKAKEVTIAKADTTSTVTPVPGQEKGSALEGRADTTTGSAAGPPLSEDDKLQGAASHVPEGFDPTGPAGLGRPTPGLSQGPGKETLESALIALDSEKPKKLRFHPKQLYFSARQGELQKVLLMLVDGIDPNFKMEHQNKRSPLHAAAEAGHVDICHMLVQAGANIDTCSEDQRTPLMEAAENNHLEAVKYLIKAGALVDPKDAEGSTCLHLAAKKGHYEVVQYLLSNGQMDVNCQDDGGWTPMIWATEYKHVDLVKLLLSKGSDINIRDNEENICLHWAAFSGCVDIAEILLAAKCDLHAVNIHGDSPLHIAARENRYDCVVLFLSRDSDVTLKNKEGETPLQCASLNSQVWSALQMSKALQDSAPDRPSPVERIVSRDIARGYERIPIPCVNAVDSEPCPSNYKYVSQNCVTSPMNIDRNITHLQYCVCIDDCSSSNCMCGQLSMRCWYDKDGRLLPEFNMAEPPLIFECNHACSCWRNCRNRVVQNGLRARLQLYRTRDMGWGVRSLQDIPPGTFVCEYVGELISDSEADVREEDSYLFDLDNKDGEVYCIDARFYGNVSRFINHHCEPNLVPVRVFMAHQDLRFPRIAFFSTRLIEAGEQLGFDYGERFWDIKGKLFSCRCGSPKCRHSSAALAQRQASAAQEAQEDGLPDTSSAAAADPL

[1] = Table II, read-out: EHMT2 PEP (IC50 μM)
[2] = Table II, read-out: EHMT1 PEP (IC50 μM)
[3] = Table III, read-out: EHMT2 PEP (IC50 μM)
[4] = Table III, read-out: EHMT1 PEP (IC50 μM)
[5] = Table VII, read-out: EHMT2 PEP IC50
[6] = Table VII, read-out: EHMT1 PEP IC50

SMILES | IC50 (human EHMT2 913-1193; [1]) [µM] | IC50 (EHMT1; [2]) [µM] | also measured
COc1ccc(Nc2nccc(CNC3CCN(C)CC3)n2)cc1OCCCN1CCCC1 [Compound 111] | > 10 | > 10 | 
COc1ccc(Nc2nccc(CN(C)C3CCOCC3)n2)cc1OCCCN1CCCC1 [Compound 112] | > 10 | > 10 | 
COc1ccc(Nc2cccc(NCC3CCNCC3)n2)cc1OCCCN1CCCC1 [Compound 113] | 1 to 10 | 1 to 10 | 
CC(=O)N1CCC(CNc2ccnc(Nc3cccc(NC(=O)CCN4CCCC4)c3)n2)CC1 [Compound 114] | > 10 | > 10 | 
CC(=O)N1CCC(CNc2ccnc(Nc3cccc(NC(=O)c4ccc5c(c4)CC(=O)N5)c3)n2)CC1 [Compound 115] | > 10 | > 10 | 
COc1ccc(Nc2nccc(NCC3CCNCC3)n2)cc1OCCCN1CCCC1Cc1ccccc1 (stereo not drawn) [Compound 116] | 1 to 10 | 1 to 10 | 
COc1ccc(Nc2nccc(NCC3CCN(C(C)=O)CC3)n2)cc1OCCCN1CC[C@H](F)C1 [Compound 117] | 1 to 10 | 1 to 10 | 
COc1ccc(Nc2nccc(NCC3CCN(C(C)=O)CC3)n2)cc1OCCCN1CC[C@@H](F)C1 [Compound 118] | 0.1 to 1 | 0.1 to 1 | 
COc1ccc(Nc2nccc(NCC3CCN(C(C)=O)CC3)n2)cc1OCCCN1CCCC1=O [Compound 119] | > 10 | > 10 | 
COc1ccc(Nc2nccc(NCC3CCN(C(C)=O)CC3)n2)cc1OCC1CCCN1C (stereo not drawn) [Compound 120] | 1 to 10 | 0.1 to 1 | 
COc1ccc(Nc2nccc(NCC3CCN(C(C)=O)CC3)n2)cc1NC(=O)CCN1CCCC1 [Compound 121] | 1 to 10 | 1 to 10 | 
CC(=O)N1CCC(CNc2ccnc(Nc3cccc(NC(=O)c4cc(C5CC5)on4)c3)n2)CC1 [Compound 122] | > 10 | > 10 | 
CC(=O)N1CCC(CNc2ccnc(Nc3cccc(NC(=O)c4cn(C5CC5)nn4)c3)n2)CC1 [Compound 123] | > 10 | > 10 | 
COc1ccc(Nc2nccc(N3CCCC3)n2)cc1OCCCN1CCCC1 [Compound 124] | 1 to 10 | 1 to 10 | 
COc1ccc(Nc2nccc(N3CCCCC3)n2)cc1OCCCN1CCCC1 [Compound 125] | 1 to 10 | 1 to 10 | 
COc1ccc(Nc2ccnc(CNC3CCOCC3)n2)cc1OCCCN1CCCC1 [Compound 190] | 1 to 10 | 1 to 10 | 
COc1ccc(Nc2ncc(NC(C)=O)cn2)cc1OCCCN1CCCC1 [Compound 194] | > 10 | > 10 | 
COc1ccc(Nc2nccc(CCN3CCN(C(C)=O)CC3)n2)cc1OCCCN1CCCC1 [Compound 196] | > 10 | > 10 | 
COc1ccc(Nc2cccc3nn(C)cc23)cc1OCCCN1CCCC1 [Compound 197] | > 10 | > 10 | 
COc1ccc(Nc2ccc3ncn(C)c3c2)cc1OCCCN1CCCC1 [Compound 200] | > 10 | > 10 | 
COc1ccc(Nc2cccn3ncnc23)cc1OCCCN1CCCC1 [Compound 201] | > 10 | > 10 | 
COc1ccc(Nc2cc(C)nc3ncnn23)cc1OCCCN1CCCC1 [Compound 202] | > 10 | > 10 | 
COc1ccc(Nc2nccc(NCC3COC3)n2)cc1OCCCN1CCCC1 [Compound 256, N^2-(4-methoxy-3-(3-(pyrrolidin-1-yl)propoxy)phenyl)-N^4-(oxetan-3-ylmethyl)pyrimidine-2,4-diamine] |  |  | IC50 (human EHMT2 913-1193; [3]): > 10 µM; IC50 (EHMT1; [4]): > 10 µM
CNc1nc(Nc2ccc(OC)c(OCCCN3CCCC3)c2)nc2ccccc12 [Compound 263, N^2-(4-methoxy-3-(3-(pyrrolidin-1-yl)propoxy)phenyl)-N^4-methylquinazoline-2,4-diamine] |  |  | IC50 (human EHMT2 913-1193; [3]): < 0.1 µM; IC50 (EHMT1; [4]): < 0.1 µM
CNc1ccnc(Nc2ccc(OC(F)(F)F)c(OCCCN3CCCC3)c2)n1 [Compound 315, N^4-methyl-N^2-(3-(3-(pyrrolidin-1-yl)propoxy)-4-(trifluoromethoxy)phenyl)pyrimidine-2,4-diamine] |  |  | IC50 (human EHMT2 913-1193; [3]): 1 to 10 µM; IC50 (EHMT1; [4]): 1 to 10 µM
CCc1ccccc1NC(=O)Nc1ccc(Nc2nc(C)cc(N3CCCC3)n2)cc1 [Compound 1115] |  |  | IC50 (human EHMT2 913-1193; [5]): 1 to 10 µM; IC50 (EHMT1; [6]): 1 to 10 µM
CCNc1nc(C)cc(Nc2ccc(NC(=O)Nc3ccc(F)cc3)cc2)n1 [Compound 1116] |  |  | IC50 (human EHMT2 913-1193; [5]): 1 to 10 µM; IC50 (EHMT1; [6]): > 10 µM
Cc1cc(N(C)C)nc(Nc2ccc(NC(=O)Nc3ccc(Cl)cc3)cc2)n1 [Compound 1117] |  |  | IC50 (human EHMT2 913-1193; [5]): 1 to 10 µM; IC50 (EHMT1; [6]): > 10 µM
CCNc1nc(C)cc(Nc2ccc(NC(=O)Nc3ccc(C)c(C)c3)cc2)n1 [Compound 1118] |  |  | IC50 (human EHMT2 913-1193; [5]): 1 to 10 µM; IC50 (EHMT1; [6]): > 10 µM
Cc1ccc(NC(=O)Nc2ccc(Nc3nc(C)cc(N4CCCC4)n3)cc2)cc1 [Compound 1119] |  |  | IC50 (human EHMT2 913-1193; [5]): 1 to 10 µM; IC50 (EHMT1; [6]): 1 to 10 µM

Continued, in another order:

IC50 (human EHMT2 913-1193; [1]) [µM] | IC50 (EHMT1; [2]) [µM] | SMILES | also measured
1 to 10 | 1 to 10 | CNc1nc(Nc2ccc(OC)c(OCCCN3CCCC3)c2)ncc1Cl [Compound 211] | 
1 to 10 | 1 to 10 | CNc1ccnc(Nc2cccc(OCC(O)CN3CCCC3)c2)n1 (stereo not drawn) [Compound 212] | 
> 10 | > 10 | COc1ccc(Nc2ncc(N)cn2)cc1OCCCN1CCCC1 [Compound 213] | 
